For 23 compounds, IC50 results are on record in patent US20260226069A1, “GCN2 AND PERK KINASE MODULATORS AND METHODS OF USE THEREOF” (Deciphera Pharmaceuticals, LLC, priority 2023, published 2026).

pIC50: −log10 of the molar value.

The test system of assay [1] is ATF4 in Thapsigargin stimulated CCRF-CEM cells. The experiment in a line: CCRF-CEM TG ATF4 ELISA, phenotypic assay for cellular inhibition of PERK preactivated by thapsigargin. The settings on record: Homo sapiens, 3 h, compound three hours then 1 μM thapsigargin for an additional hour. The class given is cell-based. How it is done: CCRF-CEM TG ATF4 ELISA, a Phenotypic Assay for Cellular Inhibition of PERK Preactivated by Thapsigargin (TG)
CCRF-CEM leukemia cells (catalog #CCL-116) were obtained from the American Type Culture Collection (ATTC, Manassas, VA). Briefly, cells were grown in RPMI-1640 medium supplemented with 10% heat-inactivated fetal bovine serum (Invitrogen, Carlsbad, CA) and 1% Penicillin/Streptomycin/L-Glutamine at 37° C., 5% CO2, and 95% humidity. Cells were expanded until reaching one million cells per mL at which time they were subcultured or harvested for assay use. One million five hundred thousand cells per well in 1 mL complete growth medium were dispensed into 12-well plates and incubated overnight. A serial dilution of test compound was added and cells were incubated at 37° C., 5% CO2, and 95% for three hours, then 1 μM thapsigargin was added and cells were incubated for an additional hour at 37° C., 5% CO2, and 95%. Cells were lysed then ATF4 levels were measured using an ELISA assay (Proteintech, Rosemont, IL). Absorbance was measured at 450 nm and 544 nM using a Synergy2 or equivalent reader (Biotek, Winooski VT). Data was analyzed using PRISM software (Graphpad, San Diego, CA) to calculate IC50 values.

In the next assay the target is T1, PERK kinase (Homo sapiens, UniProt Q9NZJ5, A704S).
T1 construct: GST (with thrombin site LVPRGS); purchased Beryllium
T1 sequence (Q9NZJ5 with tags, fused parts or gaps A704S): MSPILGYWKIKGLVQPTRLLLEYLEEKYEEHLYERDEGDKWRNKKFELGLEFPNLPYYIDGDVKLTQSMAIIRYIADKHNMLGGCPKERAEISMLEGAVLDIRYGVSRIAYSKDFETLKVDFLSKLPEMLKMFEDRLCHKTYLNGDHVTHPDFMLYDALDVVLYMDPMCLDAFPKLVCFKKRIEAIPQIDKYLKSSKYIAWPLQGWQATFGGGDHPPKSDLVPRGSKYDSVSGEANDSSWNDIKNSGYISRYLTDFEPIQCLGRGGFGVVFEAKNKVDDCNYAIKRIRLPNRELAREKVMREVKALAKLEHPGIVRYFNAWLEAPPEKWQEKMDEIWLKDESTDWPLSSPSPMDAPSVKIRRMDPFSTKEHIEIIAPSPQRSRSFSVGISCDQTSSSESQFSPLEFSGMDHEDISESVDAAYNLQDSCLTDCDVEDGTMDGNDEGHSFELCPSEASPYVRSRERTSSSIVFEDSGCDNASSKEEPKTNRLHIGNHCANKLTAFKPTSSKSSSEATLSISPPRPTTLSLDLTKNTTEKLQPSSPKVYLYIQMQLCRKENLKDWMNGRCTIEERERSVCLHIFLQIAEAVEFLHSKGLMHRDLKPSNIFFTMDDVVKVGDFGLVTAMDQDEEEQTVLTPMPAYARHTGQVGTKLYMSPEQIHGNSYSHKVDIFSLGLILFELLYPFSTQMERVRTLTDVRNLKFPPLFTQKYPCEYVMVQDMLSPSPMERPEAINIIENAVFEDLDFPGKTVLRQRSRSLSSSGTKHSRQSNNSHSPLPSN
The experiment in a line: Biochemical assay for PERK (coupled pyruvate kinase/lactate dehydrogenase assay). The settings on record: 10 nM PERK, 1 mM ATP, reaction rate 2-3 h time frame, 30° C. How it is done:
Biochemical Assay for PERK
Activity of PERK kinase was determined spectroscopically using a coupled pyruvate kinase/lactate dehydrogenase assay that continuously monitors the ATP hydrolysis-dependent oxidation of NADH (Science, 2000, 289, 1938-1942). Assays were conducted in 384-well plates (100 μL final volume) using 10 nM PERK (from Beryllium), 0.25 mg/mL Myelin Basic Protein substrate, 1.5 units pyruvate kinase, 2.1 units lactate dehydrogenase, 1 mM phosphoenol pyruvate, 0.28 mM NADH and 1 mM ATP in assay buffer (100 mM Tris, pH 7.5, 15 mM MgCl2, 0.5 mM DTT, 0.004% (w/v) BSA, and 0.004% Triton X-100). Inhibition of PERK was measured by adding serial diluted test compound (final assay concentration of 1% DMSO). A decrease in absorption at 340 nm was monitored continuously for 6 hours at 30° C. on a multi-mode microplate reader (BioTek). The reaction rate was calculated using the 2-3 h time frame. The reaction rate at each concentration of compound was converted to percent inhibition using controls (i.e., reaction with no test compound and reaction with a known inhibitor) and IC50 values were calculated using software routines in Prism (GraphPad software).

Assay [2] deals with ASNase treated CCRF-CEM cells. The assay can be described thus: CCRF-CEM ASNase cell proliferation assay, phenotypic assay for cellular inhibition of GCN2. The format is cell-based. The settings on record: Homo sapiens, 1 mU/mL ASNase, 72 h, resazurin. The protocol:
CCRF-CEM ASNase Cell Proliferation Assay, a Phenotypic Assay for Cellular Inhibition of GCN2.
CCRF-CEM leukemia cells (catalog #CCL-116) were obtained from the American Type Culture Collect (ATTC, Manassas, VA). Cells were grown in RPMI-1640 medium supplemented with 10% heat-inactivated fetal bovine serum (Invitrogen, Carlsbad, CA) and 1% Penicillin/Streptomycin/L-Glutamine at 37° C., 5% CO2, and 95% humidity. Cells were expanded until reaching one million cells per mL at which time they are subcultured or harvested for assay use. Ten thousand cells per well in 200 μL RPMI-1640 supplemented with 10% heat-inactivated fetal bovine serum and 1% Penicillin/Streptomycin were dispensed into a 96-well black clear bottom plate. A serial dilution of test compound and 1 mU/mL ASNase was added in triplicate and plates were incubated for 72 h at 37° C., 5% CO2, and 95% humidity. At the end of the incubation, 40 μL of a […] solution of resazurin (Sigma, St. Louis, MO) in PBS was added to each well of the plate and plates were incubated for an additional 6 h at 37° C., 5% CO2, and 95% humidity. Plates were read on a Synergy2 or equivalent reader (Biotek, Winooski VT) using an excitation of 540 nm and an emission of 600 nm. Data was analyzed using GraphPad Prism software (GraphPad, San Diego, CA) to calculate IC50 values.
A general note: Resazurin is reduced to fluorescent resorufin, in cell work by metabolically active cells.

The target of a further assay is T2, GCN2 kinase (Homo sapiens, UniProt Q9P2K8).
T2 construct: G556E with a; purchased Carna Biosciences
The experiment in a line: Biochemical assay for GCN2 (TR-FRET kinase activity assay). The following applies: 2 nM GCN2, 1 mM ATP, 3-hour incubation. The protocol: Biochemical assay for GCN2
Activity of GCN2 kinase was determined using a TR-FRET kinase activity assay (e.g., Analytical Biochemistry, 2006, 356, 108-116). Assays were conducted in 384-well plates (13 μL assay volume) using 2 nM GCN2 (Carna Biosciences), 130 nM GFP-EIf2α (Invitrogen), 0.2 mg/mL E. coli tRNA (sigma) and 1 mM ATP in kinase buffer (Invitrogen). Inhibition of GCN2 was measured by adding serial diluted test compound (final assay concentration of 0.5% DMSO) followed by a 3-hour incubation. Tb-peIF2α (pSer52) antibody (Invitrogen) (2 nM final assay concentration) in kinase buffer containing EDTA (final assay concentration of 20 mM) was added. After a 60 min incubation at room temperature, TR-FRET was monitored using an excitation wavelength of 340 nm and emission wavelengths of 490 nm and 520 nm. The emission ratio (520/490) at each compound concentration of was converted to percent inhibition using controls (i.e., reaction with no test compound and reaction with a known inhibitor) and IC50 values were calculated by fitting a four-parameter sigmoidal curve to the data using Prism (GraphPad software).
A general note: Time-resolved FRET reads energy transfer from a long-lived donor to a nearby acceptor.

Broadly, the pIC50 is −log10 of the IC50, conventionally taken in molar units. Regarding `COCc1cc(Cl)cc(S(=O)(=O)Nc2cccc(-c3nc(C)n4ccnc(N)c34)c2F)c1Cl` [Example 48, N-(3-(8-amino-3-methylimidazo[1,5-a]pyrazin-1-yl)-2-fluorophenyl)-2,5-dichloro-3-(methoxymethyl)benzenesulfonamide], the pIC50 was 5.00 to 6.00 in assay [1], not below 7.00 against PERK kinase, 5.00 to 6.00 in assay [2] and 6.00 to 6.30 against GCN2 kinase.
Turning to `COCCNc1nc(-c2cccc(NS(=O)(=O)c3cc(Cl)cc(CO)c3Cl)c2F)c2c(N)nccn12` [Example 23], the negative logarithm of the IC50 (pIC50) is 6.30 to 7.00 in assay [1], not below 7.00 on PERK kinase, 6.30 to 7.00 in assay [2] and 6.30 to 7.00 against GCN2 kinase.
For the compound `COc1cc(Cl)c(S(=O)(=O)Nc2cccc(-c3cn(C)c4ncnc(N)c34)c2F)cc1Cl` [Example 41], the pIC50 in assay [1] was 6.30 to 7.00; at PERK kinase it was not below 7.00; in assay [2], 5.00 to 6.00; against GCN2 kinase it was 5.00 to 6.00.
For the compound `CCNc1nc(-c2cccc(NS(=O)(=O)c3cc(Cl)cc(CO)c3Cl)c2F)c2c(N)nccn12` [Example 27], the pIC50 in assay [1] was 6.30 to 7.00; at PERK kinase, not below 7.00; in assay [2], 6.30 to 7.00; at GCN2 kinase it was not below 7.00.
`Cc1nc(-c2cccc(NS(=O)(=O)c3cc(Cl)cc(COC(=O)C4CC4)c3Cl)c2F)c2c(N)nccn12` [Example 31]: the pIC50 (in assay [1]; on PERK kinase; in assay [2]; against GCN2 kinase) was 5.00 to 6.00 throughout.
Regarding `COc1cc(F)c(S(=O)(=O)Nc2cccc(-c3cn(C)c4ncnc(N)c34)c2F)cc1Cl` [Example 37], the pIC50 in assay [1] is 6.30 to 7.00; on PERK kinase, not below 7.00; in assay [2], 6.00 to 6.30; against GCN2 kinase, 6.30 to 7.00.
For `COc1ccc(S(=O)(=O)Nc2cccc(-c3cn(C)c4ncnc(N)c34)c2F)cc1Cl` [Example 44], the pIC50 in assay [1] is 6.00 to 6.30; against PERK kinase, not below 7.00; in assay [2], 5.00 to 6.00; against GCN2 kinase it was 5.00 to 6.00.
`CNCc1cc(Cl)cc(S(=O)(=O)Nc2cccc(-c3cn(C)c4ncnc(N)c34)c2F)c1Cl` [Example 50]: the pIC50 in assay [1] is 5.00 to 6.00; on PERK kinase, 6.00 to 6.30; in assay [2], 5.00 to 6.00; against GCN2 kinase, 5.00 to 6.00.
As to `Cn1cc(-c2cccc(NS(=O)(=O)c3cc(CO)c(F)cc3F)c2F)c2c(N)ncnc21` [Example 10], the pIC50 in assay [1] was 5.00 to 6.00; on PERK kinase, 6.30 to 7.00; in assay [2], 5.00 to 6.00; at GCN2 kinase it was 5.00 to 6.00.
In the case of `CCCC(=O)OCc1cc(Cl)cc(S(=O)(=O)Nc2cccc(-c3nc(C)n4ccnc(N)c34)c2F)c1Cl` [Example 33], the negative logarithm of the IC50 (pIC50) in assay [1] is 6.30 to 7.00; at PERK kinase, 6.00 to 6.30; in assay [2], 6.30 to 7.00; at GCN2 kinase, 5.00 to 6.00.
As to `Cn1cc(-c2cccc(NS(=O)(=O)c3cc(Cl)cc(CN)c3Cl)c2F)c2c(N)ncnc21` [Example 49], the pIC50 was 6.00 to 6.30 in assay [1], 6.30 to 7.00 at PERK kinase, 5.00 to 6.00 in assay [2] and 5.00 to 6.00 against GCN2 kinase.
For `Cc1c(CO)cc(F)cc1S(=O)(=O)Nc1cccc(-c2nc(C)n3ccnc(N)c23)c1F` [Example 6], the pIC50 in assay [1] is 5.00 to 6.00; against PERK kinase it was not below 7.00; in assay [2], 5.00 to 6.00; at GCN2 kinase it was 5.00 to 6.00.
For `COC(=O)c1cccc(S(=O)(=O)Nc2cccc(-c3cn(C)c4ncnc(N)c34)c2F)c1Cl` [Example 39], the pIC50 in assay [1] was 5.00 to 6.00; at PERK kinase, 6.30 to 7.00; in assay [2] it was 5.00 to 6.00; at GCN2 kinase, 5.00 to 6.00.
`CCC(=O)OCc1cc(Cl)cc(S(=O)(=O)Nc2cccc(-c3nc(C)n4ccnc(N)c34)c2F)c1Cl` [Example 32]: the negative-log IC50 (pIC50) was 5.00 to 6.00 in assay [1], 6.00 to 6.30 against PERK kinase and 5.00 to 6.00 in assay [2].
Regarding `CO/N=C\c1cc(Cl)cc(S(=O)(=O)Nc2cccc(-c3cn(C)c4ncnc(N)c34)c2F)c1Cl` [Example 53], the pIC50 was 5.00 to 6.00 in assay [1], not below 7.00 against PERK kinase, 5.00 to 6.00 in assay [2] and 5.00 to 6.00 against GCN2 kinase.
For the compound `Cn1cc(-c2cccc(NS(=O)(=O)c3cc(Cl)cc(Br)c3Cl)c2F)c2c(N)ncnc21` [Example 42], the pIC50 in assay [1] is 5.00 to 6.00; against PERK kinase, not below 7.00; in assay [2] it was 5.00 to 6.00; at GCN2 kinase, 6.30 to 7.00.
Regarding `Cn1cc(-c2cccc(NS(=O)(=O)c3ccc(Br)c(C(F)(F)F)c3)c2F)c2c(N)ncnc21` [Example 36], the pIC50 in assay [1] was 5.00 to 6.00; against PERK kinase it was 6.30 to 7.00; in assay [2], 5.00 to 6.00; against GCN2 kinase it was 5.00 to 6.00.
Take `Cn1cc(-c2cccc(NS(=O)(=O)c3ccc(F)c(CO)c3Cl)c2F)c2c(N)ncnc21` [Example 24]: the negative-log IC50 (pIC50) is 5.00 to 6.00 in assay [1], 6.30 to 7.00 against PERK kinase, 5.00 to 6.00 in assay [2] and 5.00 to 6.00 at GCN2 kinase.
Take `Cc1nc(-c2cccc(NS(=O)(=O)c3cc(Cl)cc(CO)c3F)c2F)c2c(N)nccn12` [Example 7]: the pIC50 is 5.00 to 6.00 in assay [1], not below 7.00 on PERK kinase, 5.00 to 6.00 in assay [2] and 6.00 to 6.30 against GCN2 kinase.
As to `COc1ncc(Cl)cc1S(=O)(=O)Nc1cc(F)c(F)c(-c2nc(C)n3ccnc(N)c23)c1` [Example 28], the pIC50 was 5.00 to 6.00 in assay [1], 6.00 to 6.30 at PERK kinase, 5.00 to 6.00 in assay [2] and 5.00 to 6.00 on GCN2 kinase.
As for `CCC(C)(C)C(=O)OCc1cc(Cl)cc(S(=O)(=O)Nc2cccc(-c3nc(C)n4ccnc(N)c34)c2F)c1Cl` [Example 29], the pIC50 (in assay [1]; against PERK kinase; in assay [2]; on GCN2 kinase) was 5.00 to 6.00 throughout.
Turning to `CC(=O)OCc1cc(Cl)cc(S(=O)(=O)Nc2cccc(-c3nc(C(C)(C)C)n4ccnc(N)c34)c2F)c1Cl` [Example 30], the pIC50 in assay [1] is 5.00 to 6.00; at PERK kinase, 6.30 to 7.00; in assay [2] it was 5.00 to 6.00; at GCN2 kinase, 5.00 to 6.00.
Turning to `COC(=O)c1cc(Cl)cc(S(=O)(=O)Nc2cccc(-c3cn(C)c4ncnc(N)c34)c2F)c1Cl` [Example 40], the pIC50 in assay [1] is 5.00 to 6.00; against PERK kinase, not below 7.00; in assay [2], 5.00 to 6.00; against GCN2 kinase it was 5.00 to 6.00.
